Assays:
human M4 receptor [1] = target: T1, human M4 receptor (Homo sapiens, UniProt P08173); assay: Calcium flux assay using fluorescent imaging (M4 PAM FLIPR assay); format: cell-based; design: expressed in transfected cells; host or cells: CHO (monoclonal line, clone 2); details: Table 1; CHO cells expressing human M4+Gqi5; acetylcholine EC20
T1 sequence (P08173 1-479): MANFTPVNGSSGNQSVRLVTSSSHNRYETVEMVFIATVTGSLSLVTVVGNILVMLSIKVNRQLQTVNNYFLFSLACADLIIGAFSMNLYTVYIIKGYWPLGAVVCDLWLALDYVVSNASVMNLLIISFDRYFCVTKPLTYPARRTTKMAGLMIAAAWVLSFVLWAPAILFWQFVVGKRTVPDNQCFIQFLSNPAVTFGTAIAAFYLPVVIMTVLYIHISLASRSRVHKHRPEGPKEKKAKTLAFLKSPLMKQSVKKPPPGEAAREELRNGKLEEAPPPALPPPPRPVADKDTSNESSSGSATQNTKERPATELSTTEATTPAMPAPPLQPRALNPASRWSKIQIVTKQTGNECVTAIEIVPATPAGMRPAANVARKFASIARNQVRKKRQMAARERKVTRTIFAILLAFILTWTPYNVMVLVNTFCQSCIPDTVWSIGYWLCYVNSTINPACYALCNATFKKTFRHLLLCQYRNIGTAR
Experimental: CHO cells were transfected with expression plasmid encoding the human M4 receptor and a Gqi5 construct to redirect Gi signaling to calcium. Stable cells were cloned by limiting dilution to yield a monoclonal cell line expressing human M4+Gqi5 (clone 2). The stable cells were grown in DMEM containing 10% FBS, 200 ug/ml Geneticin and 800 ug/ml Hygromycin at 37° C. in a 10% CO2 incubator at 95% humidity.
Calcium Flux Assay Using Fluorescent Imaging (“M4 PAM FLIPR” Assay)
On the afternoon before the assay, cells were plated at a density of 50,000 cells/well into black 96 well plates with clear bottoms to yield a confluent monolayer the next day. Hanks balanced salt solution, without phenol red, containing 20 mM HEPES (pH 7.3) and 2.5 mM probenecid (assay buffer) was prepared fresh for each experiment. Compound dilutions were made using a Beckman Biomek 2000 laboratory automation workstation, in assay buffer. The dye-loading buffer consisted of a final concentration of 2 μM Fluo-4-AM (dissolved in DMSO and pluronic acid) and 65 μg/ml amidoblack in assay buffer. The existing culture media was removed from the wells and 100 μl of the dye-loading buffer was added to each well and incubated for approximately 90 min at 37° C. in a 5% CO2 incubator at 95% humidity.
Calcium flux in the dye-loaded cells was measured with the fluorescence reader Hamamatsu FDSS 7000. To test compounds as agonists, compound addition (25 μl) was made 10 s into the fluorescent measurements and fluorescent response was recorded for 3 minutes. The fluorescence data was expressed as percentage of the fluorescence obtained by an EC100 concentration (3 μM) of the endogenous full agonist acetylcholine. Each test compound concentration-response curve was constructed using a four parameter logistic equation in Microsoft Excel XLFit as follows:
Y=Minimum+((Maximum−Minimum)/(1+10^(LogEC50−X)nH)).
The concentration of agonist that produced a half-maximal response is represented by the EC50 value. Maximum and minimum are the maximum and minimum fluorescence signal in % respectively. nH is the Hill slope.
To measure positive allosteric modulator activity 25 μl of an EC20 concentration of the endogenous agonist acetylcholine is added to the cells already pre-incubated with the test compound for 15 minutes.
The M4 PAM dose response is constructed using the agonist dose-response equation above. The concentration of PAM that produced a half-maximal response is represented by the EC50 value and the maximum signal measured is the PAM efficacy expressed in % of the EC100 (3 μM) acetylcholine response. • cAMP Assay for M4 Positive Allosteric Modulators (“M4 PAM cAMP” Assay)

human M4 receptor [2] = target: T1, human M4 receptor; assay: cAMP assay for M4 positive allosteric modulators (M4 PAM cAMP assay); format: cell-based; design: expressed in transfected cells; host or cells: CHO-K1; details: Table 1; CHO-K1 cells expressing human M4; forskolin 7.5 μM + acetylcholine EC20 (0.2 nM)
Experimental: The potency of M4 PAMs was determined using a cell-based cyclic adenosine monophosphate assay. The assay was performed with CHO-Kl cells stably expressing untagged human M4 receptor and cAMP was quantified using the Nano-TRF Detection Assay kit (Roche, Cat. No. 05214386) as described in the kit instructions. The cells were grown in Ham's F-12 Nutrient mix supplemented with 10% FBS and 200 μg/ml geneticin until they reached 80% confluency. The cells were washed with PBS, detached with accutase and resuspended in assay buffer consisting of HBSS and 0.1% BSA. They were then seeded in black 384-well plates (Corning, Cat. No. 3764) at a density of 20,000 cells/20 μl per well until the addition of compounds.
Test compounds were serially diluted 1:2 in 100% DMSO and spotted in 384-well plates at 0.5 μl/well. The compounds were then diluted in water containing IBMX (Sigma, Cat. No. 17018) and a sample (5 μl) was added to the cells for 15 minutes at 37° C./5% CO2. After this incubation the cells were stimulated with a combination of forskolin (7.5 μM) and acetylcholine EC20 (0.2 nM) in assay buffer for 30 minutes at 37° C./5% CO2. The assay was stopped by adding cAMP detection mix (15 μl/well, containing detergents for cell lysis) for one hour at RT.
The test plates were read using a SpectraMax i3x reader (Molecular Devices). The exported raw data was used to calculate the FRET signal based on the P-factor as per cAMP kit instructions. The data was normalized to the activity of acetylcholine plus forskolin, with 2 nM of acetylcholine plus 7.5 μM forskolin defined as 100% activity. Dose response curves were fitted to the percent activity data of the compounds using a sigmoidal dose response model (XLfit, IDBS) and the data were reported as EC50 and percent efficacy.

SMILES	EC50 (human M4 receptor [1]) [nM]	EC50 (human M4 receptor [2]) [nM]
COCc1nc2c(c(C)c1Cl)CN(C(=O)[C@@H]1CCN(c3ccnnc3)C1)C2 [Example 59, [3-chloro-2-(methoxymethyl)-4-methyl-5,7-dihydropyrrolo[3,4-b]pyridin-6-yl]-[(3R)-1-pyridazin-4-ylpyrrolidin-3-yl]methanone]	209	881
Cc1nc2c(c(C)c1Cl)CN(C(=O)[C@@H]1CCN(c3ncc(C(F)(F)F)cn3)C1)C2 [Example 7, (3-chloro-2,4-dimethyl-5,7-dihydropyrrolo[3,4-b]pyridin-6-yl)-[(3R)-1-[5-(trifluoromethyl)pyrimidin-2-yl]pyrrolidin-3-yl]methanone]	1010	2080
COCc1nc2c(c(C)c1Cl)CN(C(=O)[C@@H]1CCN(c3cncnc3)C1)C2 [Example 58, [3-chloro-2-(methoxymethyl)-4-methyl-5,7-dihydropyrrolo[3,4-b]pyridin-6-yl]-[(3R)-1-pyrimidin-5-ylpyrrolidin-3-yl]methanone]	74	179
CNc1ccc(N2CC[C@@H](C(=O)N3Cc4nc(C)c(Cl)c(C)c4C3)C2)cn1 [Example 11, (3-chloro-2,4-dimethyl-5,7-dihydropyrrolo[3,4-b]pyridin-6-yl)-[(3R)-1-[6-(methylamino)-3-pyridyl]pyrrolidin-3-yl]methanone]	1360	446
Cc1nc2c(c(C)c1Cl)CN(C(=O)[C@@H]1CCN(c3ccnc(C(F)(F)F)c3)C1)C2 [Example 21, (3-chloro-2,4-dimethyl-5,7-dihydropyrrolo[3,4-b]pyridin-6-yl)-[(3R)-1-[2-(trifluoromethyl)-4-pyridyl]pyrrolidin-3-yl]methanone]	550	131
COc1cc(N2CC[C@@H](C(=O)N3Cc4nc(C)c(Cl)c(C)c4C3)C2)ncn1 [Example 29, (3-chloro-2,4-dimethyl-5,7-dihydropyrrolo[3,4-b]pyridin-6-yl)-[(3R)-1-(6-methoxypyrimidin-4-yl)pyrrolidin-3-yl]methanone]	591	951
Cc1ccc(N2CC[C@@H](C(=O)N3Cc4nc(C)c(Cl)c(C)c4C3)C2)nn1 [Example 40, (3-chloro-2,4-dimethyl-5,7-dihydropyrrolo[3,4-b]pyridin-6-yl)-[(3R)-1-(6-methylpyridazin-3-yl)pyrrolidin-3-yl]methanone]	1290	1990
Cc1nc2c(c(C)c1Cl)CN(C(=O)[C@@H]1CCN(c3ccnc(C(F)(F)F)n3)C1)C2 [Example 23, (3-chloro-2,4-dimethyl-5,7-dihydropyrrolo[3,4-b]pyridin-6-yl)-[(3R)-1-[2-(trifluoromethyl)pyrimidin-4-yl]pyrrolidin-3-yl]methanone]	907	791
COc1nccc(N2CC[C@@H](C(=O)N3Cc4nc(C)c(Cl)c(C)c4C3)C2)n1 [Example 25, (3-chloro-2,4-dimethyl-5,7-dihydropyrrolo[3,4-b]pyridin-6-yl)-[(3R)-1-(2-methoxypyrimidin-4-yl)pyrrolidin-3-yl]methanone]	1600	4770

Further lines, results first:

EC50 (human M4 receptor [1]) [nM]	EC50 (human M4 receptor [2]) [nM]	SMILES
274	332	Cc1nc2c(c(C)c1Cl)CN(C(=O)[C@@H]1CCN(c3ccnnc3)C1)C2 [Example 38, (3-chloro-2,4-dimethyl-5,7-dihydropyrrolo[3,4-b]pyridin-6-yl)-[(3R)-1-pyridazin-4-ylpyrrolidin-3-yl]methanone]
528	674	Cc1ccncc1N1CC[C@@H](C(=O)N2Cc3nc(C)c(Cl)c(C)c3C2)C1 [Example 13, (3-chloro-2,4-dimethyl-5,7-dihydropyrrolo[3,4-b]pyridin-6-yl)-[(3R)-1-(4-methyl-3-pyridyl)pyrrolidin-3-yl]methanone]
677	507	COc1cc(N2CC[C@@H](C(=O)N3Cc4nc(C)c(Cl)c(C)c4C3)C2)ccn1 [Example 22, (3-chloro-2,4-dimethyl-5,7-dihydropyrrolo[3,4-b]pyridin-6-yl)-[(3R)-1-(2-methoxy-4-pyridyl)pyrrolidin-3-yl]methanone]
363	591	Cc1cncc(N2CC[C@@H](C(=O)N3Cc4nc(C)c(Cl)c(C)c4C3)C2)n1 [Example 51, (3-chloro-2,4-dimethyl-5,7-dihydropyrrolo[3,4-b]pyridin-6-yl)-[(3R)-1-(6-methylpyrazin-2-yl)pyrrolidin-3-yl]methanone]
816	3640	Cc1nc2c(c(C)c1Cl)CN(C(=O)[C@@H]1CCN(c3cncc(C4CC4)c3)C1)C2 [Example 16, (3-chloro-2,4-dimethyl-5,7-dihydropyrrolo[3,4-b]pyridin-6-yl)-[(3R)-1-(5-cyclopropyl-3-pyridyl)pyrrolidin-3-yl]methanone]
2370	242	COc1ncc(N2CC[C@@H](C(=O)N3Cc4nc(C)c(Cl)c(C)c4C3)C2)cn1 [Example 33, (3-chloro-2,4-dimethyl-5,7-dihydropyrrolo[3,4-b]pyridin-6-yl)-[(3R)-1-(2-methoxypyrimidin-5-yl)pyrrolidin-3-yl]methanone]
489	769	Cc1nc2c(c(C)c1Cl)CN(C(=O)[C@@H]1CCN(c3ccncc3)C1)C2 [Example 3, (3-chloro-2,4-dimethyl-5,7-dihydropyrrolo[3,4-b]pyridin-6-yl)-[(3R)-1-(4-pyridyl)pyrrolidin-3-yl]methanone]
442	379	Cc1nc2c(c(C)c1Cl)CN(C(=O)[C@@H]1CCN(c3cncc(S(C)(=O)=O)c3)C1)C2 [Example 19, (3-chloro-2,4-dimethyl-5,7-dihydropyrrolo[3,4-b]pyridin-6-yl)-[(3R)-1-(5-methylsulfonyl-3-pyridyl)pyrrolidin-3-yl]methanone]
547	690	Cc1ccc(N2CC[C@@H](C(=O)N3Cc4nc(C)c(Cl)c(C)c4C3)C2)cn1 [Example 4, (3-chloro-2,4-dimethyl-5,7-dihydropyrrolo[3,4-b]pyridin-6-yl)-[(3R)-1-(6-methyl-3-pyridyl)pyrrolidin-3-yl]methanone]

Source: patent US20220289746A1, “PYRROLIDINE DERIVATIVES” (Hoffmann-La Roche Inc., priority 2019, published 2022)
